Source: US4154932A (priority 1977, dated 1979)
Where two headings read alike, the source gives them in different places.

Columns and labels:
[1] = tested on: phenylquinone induced writhings; experiment: animal or person; conditions: for ED50: Mus musculus
Experimental: In vivo testing was conducted on many of the compounds of the present invention.

[2] = tested on: Straub Tail induced by oxymorphone; experiment: Antagonism of oxymorphone-induced Straub Tail (antagonist activity); format: in vivo, mouse; conditions: for ED50: Mus musculus
Experimental: ^2 Antagonism of Straub Tail induced by oxymorphone (2 mg/kg, s.c.) i

[3] = tested on: withdrawal jumping (abstinence); experiment: Primary physical dependence test in mice (withdrawal jumping on naloxone challenge); conditions: repeated sc injections for two days
Experimental: (§1) Buprenorphine and (-)XI were tested for physical dependence liability in mice. […] The compounds were then tested as substitutes for morphine in withdrawn morphine-dependent mice.

[4] = tested on: Morphine Antagonism Rat Tail Flick; experiment: Morphine antagonism, Rat Tail Flick (antagonist activity); format: in vivo; conditions: Table 3; for ED50: Rattus norvegicus; for Morphine Antagonism Rat Tail Flick po/sc: ratio of ED50 po/sc
[5] = Physical dependence liability in man (predicted from mouse models); conditions: prediction from the mouse test model
Experimental: as §1

[6] = tested on: withdrawn morphine-dependent mice; experiment: Substitution for morphine in withdrawn morphine-dependent mice; conditions: 1 mg/kg sc, or less
Experimental: as §1

Rat Vocalization = Rat Vocalization (analgetic activity); format: in vivo; conditions: Table 2; for ED50: Rattus norvegicus
Rat Writhing = Rat Writhing (analgetic activity); format: in vivo; conditions: Table 2; for ED50: Rattus norvegicus
[7] = sc, read-out: Agonist Activity, Phenylquinone Writhing ED50
[8] = sc, mice, Table 1, oxymorphone 2 mg/kg, s.c., read-out: Antagonist Activity, Oxymorphone Straub Tail ED50
[9] = po, read-out: Antagonist activity ED50, Morphine Antagonism Rat Tail Flick po
[10] = sc, read-out: Antagonist activity ED50, Morphine Antagonism Rat Tail Flick sc
[11] = sc, Table 3, read-out: Antagonist activity ED50, Oxymorphone-Induced Straub Tail sc

COc1ccc2c(c1)[C@]13CCN(CC4CCC4)[C@H](C2)[C@@H]1CCOC3 (racemic) [(±)-XIII, 17-Cyclobutylmethyl-3-methoxy-6-oxamorphinan]
ED50 [1, 7]: 0.38 mg/kg | ED50 [2, 8]: ~15 mg/kg

Oc1ccc2c(c1)[C@]13CCN(CC4CCC4)[C@H](C2)[C@@H]1CCOC3 (racemic) [(±)-XIV, 17-Cyclobutylmethyl-3-hydroxy-6-oxamorphinan]
ED50 [1, 7]: 0.015 mg/kg | ED50 [2, 8]: ~6 mg/kg

CO[C@@]12CC[C@@]3(C[C@@H]1[C@](C)(O)C(C)(C)C)[C@H]1Cc4ccc(O)c5c4[C@@]3(CCN1CC1CC1)[C@H]2O5 [Buprenorphine]
Withdrawal jumping (primary physical dependence) [3]: did not exhibit withdrawal jumping (abstinence) | ED50 [4, 9]: 0.92 mg/kg | ED50 [4, 10]: 0.063 mg/kg | Morphine Antagonism Rat Tail Flick po/sc [4]: 15 | ED50 ([1]; central, read-out: Analgetic activity ED50, Intraventricular): 0.0004 mg/kg | ED50 ([1]; po, read-out: Analgetic activity ED50, Mouse Writhing po): 0.27 mg/kg | ED50 ([1]; sc, read-out: Analgetic activity ED50, Mouse Writhing sc): 0.021 mg/kg | Mouse Writhing po/sc ([1]; ratio of ED50 po/sc, Table 2): 13 | sc/I. Vent. ([1]; ratio of ED50 sc/intraventricular, Table 2): 53 | Predicted physical dependence liability in man [5]: morphine-like | Substitution for morphine [6]: complete substitution for morphine | ED50 (Rat Vocalization; po, read-out: Analgetic activity ED50, Rat Vocalization po): ~0.08 mg/kg | ED50 (Rat Vocalization; sc, read-out: Analgetic activity ED50, Rat Vocalization sc): 0.005 mg/kg | Rat Vocalization po/sc (Rat Vocalization; ratio of ED50 po/sc): ~ 16 | ED50 [2, 11]: 0.46 mg/kg | ED50 (Rat Writhing; po, read-out: Analgetic activity ED50, Rat Writhing po): 0.16 mg/kg | ED50 (Rat Writhing; sc, read-out: Analgetic activity ED50, Rat Writhing sc): 0.013 mg/kg | Rat Writhing po/sc (Rat Writhing; ratio of ED50 po/sc): 12

COc1ccc2c(c1)[C@]13CCN[C@H](C2)[C@@H]1CCOC3 (racemic) [(±)-VIII, 3-methoxy-6-oxamorphinan]
ED50 [1, 7]: ~40 mg/kg | ED50 [2, 8]: > 40 mg/kg

C=CCN1CC[C@]23c4c5ccc(O)c4O[C@H]2C(=O)CC[C@@]3(O)[C@H]1C5 [Naloxone, reference compound]
ED50 [4, 9]: 2.7 mg/kg | ED50 [4, 10]: 0.01 mg/kg | Morphine Antagonism Rat Tail Flick po/sc [4]: 270 | ED50 ([2]; po, Table 3, read-out: Antagonist activity ED50, Oxymorphone-Induced Straub Tail po): 13 mg/kg | ED50 [2, 11]: 0.09 mg/kg | Oxymorphone-Induced Straub Tail po/sc ([2]; ratio of ED50 po/sc, Table 3): 144

COc1ccc2c(c1)[C@]13CCN(CC4CC4)[C@H](C2)[C@@H]1CCOC3 [(-)-X, (-)-17-Cyclopropylmethyl-3-methoxy-6-oxamorphinan]
ED50 [1, 7]: 0.14 mg/kg | ED50 [2, 8]: ~6 mg/kg

Oc1ccc2c(c1)[C@]13CCN(CC4CC4)[C@H](C2)[C@@H]1CCOC3 (racemic) [(±)-XI, 17-Cyclopropylmethyl-3-hydroxy-6-oxamorphinan]
ED50 [1, 7]: 0.037 mg/kg | ED50 [2, 8]: 0.76 mg/kg
